Values of other authors, collected in US20070014855A1, “STABLE DESLORATADINE COMPOSITIONS” (priority 2005, published 2007).

Clc1ccc2c(c1)CCc1cccnc1C2=C1CCNCC1 [Desloratadine, 8-chloro-6,11-dihydro-11-(4-piperidylidene)-5H-benzo[5,6]-cyclohepta[1,2-b]pyridine]
solubility in ethanol (ethanol): very soluble
solubility in propylene glycol (propylene glycol): very soluble
solubility in water (water): slightly soluble
